Results reported in patent US8685934B2, “Methods for treating extreme insulin resistance in patients resistant to previous treatment with other anti-diabetic drugs employing an SGLT2 inhibitor and compositions thereof” (Bristol-Myers Squibb Company, priority 2009, dated 2014).
Like-named read-outs stand apart in the source and are kept apart here.

Tested on: highly insulin-resistant T2DM patients poorly controlled with insulin plus metformin and/or thiazolidinediones
Details: for Postprandial glucose, change from baseline, mean (95% CI): 120 minutes by OGTT; for Fasting plasma glucose, change from baseline, mean (95% CI) / HbA1c, change from baseline, mean (95% CI) / Weight, change from baseline, mean (95% CI) / Total daily insulin dose, change from baseline, mean (95% CI): ANCOVA-adjusted; for Patients with HbA1c < 7.0%, No., response / Patients with ↓ HbA1c ≧ 0.5%, No., response: of 23 patients; for HbA1c, mean (SD), End of Double-blind (Week 12 LOCF): Cohort 2; for Patients who required up-titration of insulin: throughout the 12-week double-blind period, placebo arm 4 patients; for Patients exposed to study medication for ≧84 days prior to insulin up-titration: versus 39.1% in the placebo arm
Description: Criteria for management of hyperglycemia were determined by fasting plasma glucose (FPG) measurements. For any FPG level >240 mg/dL at weeks 4 and 6, >220 mg/dL at week 8, or >200 mg/dL at week 10, the patient would be scheduled for a follow-up visit in 3 to 5 days. If FPG was still above the threshold at follow-up, a visit was scheduled in order to increase the insulin dose as clinically indicated. Patients who further lacked glycemic control despite up-titration, or whose modified insulin dose exceeded baseline, were discontinued from blinded treatment and entered into follow-up.
All patients were on insulin-sensitizer therapy for at least 6 weeks prior to enrollment and insulin-based therapy for at least 12 weeks prior to enrollment. The study protocol defined insulin-sensitizer therapy as metformin (stable dose ≧1000 mg) and/or pioglitazone (stable dose ≧30 mg) or rosiglitazone (stable dose 4 mg). Insulin-based therapy was defined as subcutaneous insulin for at least 12 weeks prior to enrollment, with 2 minimum insulin daily dose equivalent to 50 units (median 85 to 93 units across all study arms) of U100 insulin per day. The insulin regimen must have been stable for at least 6 weeks. In addition to 10 mg dapagliflozin or 20 mg dapagliflozin daily or placebo, 74.6% of patients received metformin (≧1000 mg daily) plus insulin; 16.9% of patients received metformin (≧1000 mg daily) plus pioglitazone (≧30 mg daily) or rosiglitazone (4 mg daily) plus insulin and 8.5% of patients received pioglitazone (≧30 mg daily) or rosiglitazone (4 mg daily) plus insulin.
Patients in Cohort 1 were evaluated for safety only. Patients in Cohort 2 were evaluated for safety and efficacy. The primary efficacy measure was change from baseline in HbAlc, at week 12, last observation carried forward (LOCF). If no week 12 assessment was available, the last observation prior to week 12 was used. Secondary efficacy measures included changes from baseline at week 12 (LOCF) in FPG and insulin dose, the proportion of patients achieving a decrease in HbAlc>0.5% from baseline at week 12 (LOCF), and the proportion of patients achieving HbAlc<7% at week 12 (LOCF). Tertiary endpoints included changes from baseline in total body weight and in postprandial glucose (PPG) measured by an oral glucose tolerance test (OGTT).
Patients in Cohort 2 were evaluated for safety and efficacy. The primary efficacy measure was change from baseline in HbAlc at week 12, last observation carried forward (LOCF). The analysis was done excluding data after up-titration of insulin. If no week 12 assessment was available, the last observation prior to week 12 was used.
For Cohort 2, the sample size target of 22 patients per treatment group was chosen to allow for the calculation of 95% confidence intervals for the primary endpoint with a half-width of 0.42% for each treatment group. This assumed a 1% standard deviation for the primary endpoint in each of the dapagliflozin and placebo arms. With the same assumption, the half-width of a 95% confidence interval for the difference between any two treatment mean changes was estimated to be 0.59%. The primary efficacy data set consisted of all randomized patients who took at least one dose of double-blind study medication during the treatment phase. The analyses of the efficacy variables (except change from baseline in insulin dose) were done excluding data after up-titration of insulin. The analyses for changes from baseline in HbAlc, FPG, insulin dose, and total body weight at week 12 (LOCF) were performed using an analysis of covariance (ANCOVA) model with treatment group as an effect and baseline value as a covariate. Point estimates and 95% confidence intervals were calculated for mean changes within each treatment group and for differences in mean changes between the dapagliflozin and placebo groups.

[1] = Dapagliflozin 10 mg + insulin + OAD, week 12 LOCF
[2] = Dapagliflozin 10 mg + insulin + OAD, week 12 LOCF, excludes data after insulin up-titration
[3] = Dapagliflozin 10 mg + insulin + OAD, week 12 LOCF, excludes data after insulin up-titration, listed as dapagliflozin
[4] = Dapagliflozin 20 mg + insulin + OAD, excludes data after insulin up-titration
[5] = Dapagliflozin 20 mg + insulin + OAD, week 12 LOCF
[6] = Dapagliflozin 20 mg + insulin + OAD, week 12 LOCF, excludes data after insulin up-titration
[7] = Dapagliflozin 20 mg + insulin + OAD, week 12 LOCF, excludes data after insulin up-titration, listed as dapagliflozin

CCOc1ccc(Cc2cc([C@@H]3O[C@H](CO)[C@@H](O)[C@H](O)[C@H]3O)ccc2Cl)cc1 [Dapagliflozin, (2S,3R,4R,5S,6R)-2-(4-chloro-3-(4-ethoxybenzyl)phenyl)-6-(hydroxymethyl)tetrahydro-2H-pyran-3,4,5-triol]
Patients with ↓ HbA1c ≧ 0.5%, difference in proportions vs placebo + insulin + OAD (95% CI) [1]: 49.4 (20.1 to 72.4) %
Total daily insulin dose change from baseline, difference vs placebo + insulin + OAD, mean (95% CI) [1]: −3.1 (−10.7 to 4.6) U
Weight change from baseline, difference vs placebo + insulin + OAD, mean (95% CI) [1]: −2.6 (−4.0 to −1.2) kg
Postprandial glucose, change from baseline, mean (95% CI) [2]: −34.3 (−67.5 to −1.1) mg/dL
Fasting plasma glucose, change from baseline, mean (95% CI) [2]: 2.4 (−13.6 to 18.3) mg/dL
HbA1c, change from baseline, mean (95% CI) [2]: −0.61 (−0.87 to −0.36) %
Weight, change from baseline, mean (95% CI) [2]: −4.5 (−5.5 to −3.5) kg
Fasting plasma glucose, change from baseline, mean (95% CI) [3]: 2.4 mg/dL
Weight, change from baseline, mean (95% CI) [3]: -4.5 kg
Total daily insulin dose, change from baseline, mean (95% CI) (Dapagliflozin 10 mg + insulin + OAD, week 12 LOCF, includes data after insulin up-titration): −1.4 (−6.6 to 3.9) U
Patients with HbA1c < 7.0%, (%), response [2]: 13.0%
Patients with ↓ HbA1c ≧ 0.5%, (%), response [2]: 65.2%
HbA1c change from baseline, difference vs placebo + insulin + OAD, mean (95% CI) (Dapagliflozin 10 mg + insulin + OAD, week 12 LOCF, listed as dapagliflozin): −0.70%
Patients with HbA1c < 7.0%, No., response [2]: 3
Patients with ↓ HbA1c ≧ 0.5%, No., response [2]: 15
HbA1c, mean (SD), End of Double-blind (Week 12 LOCF) (Dapagliflozin 10 mg once daily + insulin (50% of usual dose) + OAD, excludes data after insulin up-titration): 7.8 (0.7) %
Fasting plasma glucose, mean (SD), End of Double-blind (Week 12 LOCF) [4]: 149.4 (32.0) mg/dL
Weight, mean (SD), End of Double-blind (Week 12 LOCF) [4]: 97.8 (14.1) kg
Total daily insulin dose, mean (SD), End of Double-blind (Week 12 LOCF) (Dapagliflozin 20 mg + insulin + OAD, includes data after insulin up-titration, U = units of U100 insulin): 53.5 (32.1) U
Postprandial glucose, mean (SD), End of Double-blind (Week 12 LOCF) (Dapagliflozin 20 mg + insulin + OAD, measured at 120 minutes by OGTT, excludes data after insulin up-titration): 272.6 (51.2) mg/dL
Fasting plasma glucose change from baseline, difference vs placebo + insulin + OAD, mean (95% CI) [5]: −27.4 (−50.3 to −4.6) mg/dL
HbA1c change from baseline, difference vs placebo + insulin + OAD, mean (95% CI) [5]: −0.78 (−1.16 to −0.40) %
Patients with ↓ HbA1c ≧ 0.5%, difference in proportions vs placebo + insulin + OAD (95% CI) [5]: 49.4 (20.1 to 72.4) %
Total daily insulin dose change from baseline, difference vs placebo + insulin + OAD, mean (95% CI) [5]: −2.5 (−10.2 to 5.1) U
Weight change from baseline, difference vs placebo + insulin + OAD, mean (95% CI) [5]: −2.4 (−3.8 to −1.0) kg
Postprandial glucose, change from baseline, mean (95% CI) [6]: −41.9 (−74.8 to −8.9) mg/dL
Fasting plasma glucose, change from baseline, mean (95% CI) [6]: −9.6 (−25.6 to 6.3) mg/dL
HbA1c, change from baseline, mean (95% CI) [6]: −0.69 (−0.94 to −0.43) %
Weight, change from baseline, mean (95% CI) [6]: −4.3 (−5.3 to −3.3) kg
Fasting plasma glucose, change from baseline, mean (95% CI) [7]: -9.6 mg/dL
Weight, change from baseline, mean (95% CI) [7]: -4.3 kg
Total daily insulin dose, change from baseline, mean (95% CI) (Dapagliflozin 20 mg + insulin + OAD, week 12 LOCF, includes data after insulin up-titration): −0.8 (−6.1 to 4.5) U
Patients with HbA1c < 7.0%, (%), response [6]: 4.3%
Patients with ↓ HbA1c ≧ 0.5%, (%), response [6]: 65.2%
HbA1c change from baseline, difference vs placebo + insulin + OAD, mean (95% CI) (Dapagliflozin 20 mg + insulin + OAD, week 12 LOCF, listed as dapagliflozin): −0.78%
Patients with HbA1c < 7.0%, No., response [6]: 1
Patients with ↓ HbA1c ≧ 0.5%, No., response [6]: 15
HbA1c, mean (SD), End of Double-blind (Week 12 LOCF) (Dapagliflozin 20 mg once daily + insulin (50% of usual dose) + OAD, excludes data after insulin up-titration): 7.8 (0.6) %
Patients who required up-titration of insulin (dapagliflozin 10 mg arm (n = 24)): 1 patient
Patients exposed to study medication for ≧84 days prior to insulin up-titration (dapagliflozin 10 mg arm): 66.7%
Patients who required up-titration of insulin (dapagliflozin 20 mg arm (n = 24)): 3 patients
Patients exposed to study medication for ≧84 days prior to insulin up-titration (dapagliflozin 20 mg arm): 66.7%
Additional weight loss compared to placebo (dapagliflozin treatment (dose not distinguished), insulin dose reduced by 50%): -2.5 kg
HbAlc, PPG and weight versus placebo, in words (insulin-resistant patients who had their baseline insulin reduced 50%): decreased HbAlc, PPG and weight more than placebo
Weight lowering versus placebo, in words (week 12 (LOCF)): more likely to lower weight than placebo
